# Reference: PubChem BioAssay AID330 (DTP/NCI, 2004)
# “And” between values parts separate entries of the source, which are not always exact repeats. Equal values may be shown once. Toxic doses and inconclusive results are not listed.
# Tested on: P388 leukemia ip, CD2F1 mice, survival T/C
# Assay: NCI In Vivo Anticancer Drug Screen. Data for tumor model P388 Leukemia (intraperitoneal) in CD2F1 (CDF1) mice
# Settings: endpoint: median survival time, higher = longer survival
# How it was run: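 Mice carrying the transplanted tumor received test compound or vehicle. Survival was recorded in each group, and the value is the treated-group measurement divided by that of the vehicle-treated control group.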
# [1] = dose: 100.0 mg/kg/injection, schedule: Q01DX001 (ip), vehicle: saline
# [2] = dose: 200.0 mg/kg/injection, schedule: Q01DX001 (ip), vehicle: saline
# [3] = dose: 400.0 mg/kg/injection, schedule: Q01DX001 (ip), vehicle: saline
# [4] = dose: 50.0 mg/kg/injection, schedule: Q01DX005 (ip), vehicle: saline with Tween-80
# [5] = dose: 100.0 mg/kg/injection, schedule: Q01DX005 (ip), vehicle: saline with Tween-80
# [6] = dose: 200.0 mg/kg/injection, schedule: Q01DX005 (ip), vehicle: saline with Tween-80
# [7] = dose: 50.0 mg/kg/injection, schedule: Q01DX005 (ip), vehicle: Klucel (hydroxypropylcellulose) (HPC)
# [8] = dose: 100.0 mg/kg/injection, schedule: Q01DX005 (ip), vehicle: Klucel (hydroxypropylcellulose) (HPC)
# [9] = dose: 200.0 mg/kg/injection, schedule: Q01DX005 (ip), vehicle: Klucel (hydroxypropylcellulose) (HPC)
# [10] = dose: 100.0 mg/kg/injection, schedule: Q01DX009 (ip), vehicle: saline with Tween-80
# [11] = dose: 200.0 mg/kg/injection, schedule: Q01DX009 (ip), vehicle: saline with Tween-80
smiles,measurement,setting,value
Cc1cc(NCCCCCCNc2cc(C)nc3cc(N)ccc23)c2ccc(N)cc2n1,T/C,"dose: 25.0 mg/kg/injection, schedule: Q01DX009 (ip), vehicle: other",150 % of control and 158 % of control
COC(=O)CCCCCCCCCCCCC1C=CCC1 (centres undefined),T/C,[1],100 % of control
same,T/C,[2],104 % of control
same,T/C,[3],104 % of control
NCCCC(C(=O)O)N(C(=O)OCc1ccccc1)C(=O)OCc1ccccc1 (centres undefined),T/C,[4],97 % of control
same,T/C,[5],101 % of control
same,T/C,[6],90 % of control
Cc1nnc2c3[nH]c4ccccc4c3c(Cl)nn12,T/C,[7],99 % of control
same,T/C,[8],92 % of control
same,T/C,[9],98 % of control
C=C(CN(C)C)C(=O)c1cc(C)ccc1C,T/C,"dose: 0.93 mg/kg/injection, schedule: Q01DX005 (ip), vehicle: saline",100 % of control
same,T/C,"dose: 1.87 mg/kg/injection, schedule: Q01DX005 (ip), vehicle: saline",100 % of control
same,T/C,"dose: 3.75 mg/kg/injection, schedule: Q01DX005 (ip), vehicle: saline",98 % of control
CCCCN(CCCC)c1nsc(N2CCOCC2)n1,T/C,"dose: 50.0 mg/kg/injection, schedule: Q01DX009 (ip), vehicle: saline with Tween-80",94 % of control
same,T/C,[10],100 % of control
same,T/C,[11],108 % of control
O=C(O)Cc1csc(=S)n1-c1ccccc1,T/C,[4],97 % of control
same,T/C,[5],102 % of control
same,T/C,[6],90 % of control
COc1ccc(CSC(=S)Nc2ccc(Br)c(C)c2)cc1,T/C,"dose: 50.0 mg/kg/injection, schedule: Q01DX009 (ip), vehicle: suspension in saline",96 % of control
same,T/C,"dose: 100.0 mg/kg/injection, schedule: Q01DX009 (ip), vehicle: suspension in saline",101 % of control
same,T/C,"dose: 200.0 mg/kg/injection, schedule: Q01DX009 (ip), vehicle: suspension in saline",109 % of control
CNC(=S)N/N=C(\C)c1ccco1,T/C,[1],104 % of control
same,T/C,[2],97 % of control
same,T/C,[3],97 % of control
COc1cccc2c1[n+]([O-])c1cccc(O)c1[n+]2[O-],T/C,"dose: 1.56 mg/kg/injection, schedule: Q01DX009 (ip), vehicle: saline with Tween-80",112 % of control
same,T/C,"dose: 3.12 mg/kg/injection, schedule: Q01DX009 (ip), vehicle: saline with Tween-80",109 % of control
same,T/C,"dose: 6.25 mg/kg/injection, schedule: Q01DX009 (ip), vehicle: saline with Tween-80",114 % of control
same,T/C,"dose: 12.5 mg/kg/injection, schedule: Q01DX009 (ip), vehicle: saline with Tween-80",124 % of control
CC(=O)CCC(=O)OC(C)(C)CN,T/C,[10],100 % of control
same,T/C,"dose: 100.0 mg/kg/injection, schedule: Q04DX003 (ip), vehicle: saline with Tween-80",100 % of control
same,T/C,[11],100 % of control
same,T/C,"dose: 200.0 mg/kg/injection, schedule: Q04DX003 (ip), vehicle: saline with Tween-80",100 % of control
same,T/C,"dose: 400.0 mg/kg/injection, schedule: Q01DX009 (ip), vehicle: saline with Tween-80",104 % of control
same,T/C,"dose: 400.0 mg/kg/injection, schedule: Q04DX003 (ip), vehicle: saline with Tween-80",104 % of control
Cc1cc2ccccc2nc1C#N,T/C,"dose: 25.0 mg/kg/injection, schedule: Q01DX005 (ip), vehicle: Klucel (hydroxypropylcellulose) (HPC)",105 % of control
same,T/C,[7],102 % of control
same,T/C,[8],101 % of control
same,T/C,[9],109 % of control
COc1ccccc1N=Nc1c(-c2cccs2)nn(C(=S)SC)c1C(F)(F)F,T/C,"dose: 60.0 mg/kg/injection, schedule: Q01DX005 (ip), vehicle: saline with Tween-80",92 % of control
same,T/C,"dose: 120.0 mg/kg/injection, schedule: Q01DX005 (ip), vehicle: saline with Tween-80",97 % of control
same,T/C,"dose: 240.0 mg/kg/injection, schedule: Q01DX005 (ip), vehicle: saline with Tween-80",97 % of control
Cc1cc(C)[n+](C)c2cc3ccccc3cc12,T/C,"dose: 12.5 mg/kg/injection, schedule: Q01DX005 (ip), vehicle: saline with Tween-80",115 % of control
same,T/C,[4],109 % of control
